Laboratory results as given in EP1283052A1, “Pharmaceutical composition containing caspase-8 and /or caspase-9 useful for overcoming glucocorticoid- and cancer therapy-induced apoptosis of tumours” (Deutsches Krebsforschungszentrum Stiftung des öffentlichen …, priority 2001, dated 2003).

Legend:
Format in all cases: cell-based, human
caspase-9 and caspase-3 = experiment: Caspase-9 and caspase-3 protein expression in P5 cells (immunofluorescence, Western blot); details: Fig. 4c
Procedure: (§1) P5 cells either untreated (CO) or stimulated with cisplatin (CIS, 2 µg/ml) were incubated in the absence or presence of DEX (1 µM). • (a) 6 and 24 h later RNA was extracted and assayed by RT-PCR for expression of caspase-9. Expression of the GAPDH gene served as control for equal conditions. • (b) 24 h after stimulation expression of caspase-9 proteins was examined by immunofluorescence staining using a rabbit polyclonal caspase-9 antibody and a FITC-coupled secondary antibody. Staining with the secondary antibody alone served as control for unspecific binding. • (c) 48 and 72 h after treatment whole cell proteins were extracted and analysed for expression of caspase-9 and caspase-3. The protein sizes in kDa are indicated on the right. […]
(§2) • (A) Cell culture. […] The mice were given 0.28 mg/L DEX in drinking water, and the amount of water consumed was monitored. […] The tumour volumes were measured using callipers, and calculated using, as an approximation, the formula for volume of a hemi-ellipsoid: π(width^2 x length)/6. […] Early apoptotic changes were identified by staining of cells with fluoresceinthiocyanate (FITC)-conjugated annexin V and propidium iodide (Becton Dickinson, Heidelberg, Germany) and analysed by flow cytometry (FACScan, Becton Dickinson) as described (Herr et al., EMBO J. 16 (1997), 6200-6208) • (E) Immunohistochemistry. […]

caspase-9 [1] = experiment: Caspase-9 expression in leukemic T cells; details: cisplatin, data not shown
caspase-9 [2] = experiment: RT-PCR for caspase-9 mRNA expression in P5 cells; details: cisplatin 2 µg/ml, 6 and 24 h, Fig. 4a
Procedure: as §1, §2

Structure (SMILES): N.N.[Cl][Pt][Cl] [cisplatin]
- protein levels of procaspase-9 (caspase-9 and caspase-3; Western blot at 48 and 72 h): reduced the protein levels of procaspase-9
- procaspase-3 cleavage (caspase-9 and caspase-3; cisplatin alone, 48 and 72 h): cleaved 48 and 72 h following cisplatin
- expression of caspase-9 (caspase-9 [1]): neither induced
- caspase-9 mRNA expression (caspase-9 [2]): strongly enhanced
